Laboratory results published in patent US20040053270A1, “RNA binding compounds and uses thereof” (priority 2000, published 2004).

Test system: E. coli ribosomes
Conditions: 20 nM competitor, 20 nM oxazolidinone-TAMRA reporter
Experimental: The interaction between oxazolidinone-TAMRA and E. coli ribosomes was monitored by comparing the change in fluorescence anisotropy in the presence and absence of 100 μM non-fluorescent oxazolidinone competitor. Each measurement was made in a 400 μl cuvette, in a Perkin Elmer LS50B fluorimeter. Increasing amounts of ribosomes (corresponding to the amounts shown in FIG. 6) were added to a solution of 20 nM oxazolidinone-TAMRA in the presence of 50 mM Tris.HCl pH 7.5, 70 mM NH4Cl, 30 mM KCl, 7 mM MgCl2, 1 mM DTT, 0.5 mM EDTA. For each titration point an anisotropy measurement was acquired using an excitation wavelength of 554 nm with the excitation slits set to 10 nm and an emission wavelength of 575 nm with the emission slits set to 10 nm.
The same experiment was performed, but using 20 nM non-fluorescent linezolid (an oxazolidinone) as the competitor.

Question: How did the “anisotropy upon addition of the ribosomes in the presence of competitor” value turn out when `CC(=O)NC[C@H]1CN(c2ccc(N3CCOCC3)c(F)c2)C(=O)O1` [linezolid] was run?
Answer: considerably reduced
